# According to patent US20030017186A1, “Carboxylic acid fluorides as pesticides” (priority 1999, published 2003):
# How the values were obtained:
# termites = experiment: Termite control fumigation test (overall statements); type: in vivo, Cryptotermes brevis, Incisitermes tabogae; details: Example 6; compared with those treated with acetyl fluoride
# From the text: (§1) c) American drywood termites (Cryptotermes brevis)=CRYPBR, and Incisitermes tabogae=INCITA
# (§2) The test organisms, separated by species, were placed into a glass vessel measuring 30 cm×30 cm×60 cm, which was sealed with a glass lid so as to be airtight. The adults and the larvae of the mealworm beetle (Tenebrio molitor) and the broad-horned flour beetle (Gnathocerus cornutus) were placed into small glass vessels approximately 5 cm in diameter, which were closed with a gauze lid and in which they could freely move about. The larvae of the rice weevil had burrowed into seeds of grain. The wood pest larvae were inserted into small blocks of wood measuring 5 cm×2.5 cm×2 cm. The openings were sealed with wads of cotton wool. Only one each of the larvae of the house longhorn beetle (Hylotrupes bajulus) was inserted into a piece of wood, while 6-8 larvae of the common furniture beetle (Anobium punctatum) were inserted into each piece of wood.
# (§3) The respective gas was then introduced into the fumigation vessel through a gas line from a gas tank that contained the specified amount of gas. After a defined time period, the fumigation vessel was purged with compressed air. The discharged gas was purified by an attached gas scrubber.
# (§4) The beetles were observed until they died. This point was recorded for each species. The larvae of the wood pests as well as the larvae of the rice weevil (Sitophilus oryzae) had to be picked out of the wood or the grain to check their condition. If any of the animals were still alive, the wooden test blocks remaining in the vessel were fumigated again and were reexamined after the corresponding time span had elapsed. The same number of animals in the untreated control was also checked at each point.
# The vitality of the animals was checked at certain time intervals. The beetles could be observed through the fumigation vessel. This was also true for the larvae of the mealworm beetle and the broad-horned flour beetle. […] The exact time intervals and the number of the evaluated pests were documented in the test results.
# wood and storage pests = experiment: Fumigation test, wood and storage pests (overall statements); type: in vivo; details: Example 5; wood and storage pests
# From the text: as §2, §3, §4
# (§5) The vitality of the animals was checked at certain time intervals. The beetles could be observed through the fumigation vessel. This was also true for the larvae of the mealworm beetle and the broad-horned flour beetle. The wooden test blocks of the wood pest larvae were opened with hammer and chisel. Tweezers were used to pull the rice weevil larvae out of the grain seeds. The exact time intervals and the number of the evaluated pests were documented in the test results.
# [1] = test system: Mealworm beetle (Tenebrio molitor); experiment: Fumigation test in glass vessel, mealworm beetles; type: in vivo; details: TENEMO beetles; Example 5; ACF 50.6/48.2/51.4 g/m^3, SF 47.4/44.6/41 g/m^3 (1st/2nd/3rd fumigation); 23/23/22° C.
# From the text: (§6) a1) Mealworm beetle (Tenebrio molitor)=TENEMO
# as §2, §3, §4, §5
# [2] = test system: Rice weevil (Sitophilus oryzae); experiment: Fumigation test in glass vessel, rice weevils; type: in vivo; details: SITTOR beetles; Example 5; ACF 50.6/48.2/51.4 g/m^3, SF 47.4/44.6/41 g/m^3 (1st/2nd/3rd fumigation); 23/23/22° C.
# From the text: (§7) a2) Rice weevil (Sitophilus oryzae)=SITTOR
# as §2, §3, §4, §5
# [3] = test system: House longhorn beetle (Hylotrupes bajulus); experiment: Fumigation test in glass vessel, house longhorn beetles; type: in vivo; details: HYLOBA beetles; Example 5; ACF 50.6/48.2/51.4 g/m^3, SF 47.4/44.6/41 g/m^3 (1st/2nd/3rd fumigation); 23/23/22° C.
# From the text: (§8) b1) House longhorn beetle (Hylotrupes bajulus)=HYLOBA
# as §2, §3, §4, §5
# [4] = test system: Broad-horned flour beetle (Gnathocerus cornutus); experiment: Fumigation test in glass vessel, broad-horned flour beetles; type: in vivo; details: GNATCO beetles; Example 5; ACF 50.6/48.2/51.4 g/m^3, SF 47.4/44.6/41 g/m^3 (1st/2nd/3rd fumigation); 23/23/22° C.
# From the text: (§9) a3) Broad-horned flour beetle (Gnathocerus cornutus)=GNATCO
# as §2, §3, §4, §5
# [5] = test system: Broad-horned flour beetle (Gnathocerus cornutus) larvae; experiment: Fumigation test in glass vessel, broad-horned flour beetle larvae; type: in vivo; details: GNATCO larvae; Example 5; ACF 50.6/48.2/51.4 g/m^3, SF 47.4/44.6/41 g/m^3 (1st/2nd/3rd fumigation); 23/23/22° C.
# From the text: as §9, §2, §3, §4, §5
# [6] = test system: Mealworm beetle (Tenebrio molitor) larvae; experiment: Fumigation test in glass vessel, mealworm beetle larvae; type: in vivo; details: TENEMO larvae; Example 5; ACF 50.6/48.2/51.4 g/m^3, SF 47.4/44.6/41 g/m^3 (1st/2nd/3rd fumigation); 23/23/22° C.
# From the text: as §6, §2, §3, §4, §5
# [7] = test system: Common furniture beetle (Anobium punctatum); experiment: Fumigation test in glass vessel, common furniture beetles; type: in vivo; details: ANOBPU beetles; Example 5; ACF 50.6/48.2/51.4 g/m^3, SF 47.4/44.6/41 g/m^3 (1st/2nd/3rd fumigation); 23/23/22° C.
# From the text: (§10) b2) Common furniture beetle (Anobium punctatum)=[…]
# as §2, §3, §4, §5
# [8] = test system: Common furniture beetle (Anobium punctatum) larvae; experiment: Fumigation test in glass vessel, common furniture beetle larvae in wood blocks; type: in vivo; details: ANOBPU larvae in wood blocks; Example 5; ACF 50.6/48.2/51.4 g/m^3, SF 47.4/44.6/41 g/m^3 (1st/2nd/3rd fumigation); 23/23/22° C.
# From the text: as §10, §2, §3, §4, §5
# [9] = test system: American drywood termites (Cryptotermes brevis); experiment: Termite control fumigation test, Cryptotermes brevis; type: in vivo; details: Example 6
# From the text: as §1, §2, §3, §4, §5
# [10] = test system: Saw-toothed grain beetle (Oryzaephilus surinamensis); experiment: Fumigation test in glass vessel, saw-toothed grain beetles; type: in vivo; details: ORYZSA beetles; Example 5; ACF 50.6/48.2/51.4 g/m^3, SF 47.4/44.6/41 g/m^3 (1st/2nd/3rd fumigation); 23/23/22° C.
# From the text: a4) Saw-toothed grain beetle (Oryzaephilus surinamensis)=ORYZSA
# as §2, §3, §4, §5
# Incisitermes tabogae = experiment: Termite control fumigation test, Incisitermes tabogae; type: in vivo; details: Example 6
# From the text: as §1, §2, §3, §4, §5
# [11] = test system: Rice weevil (Sitophilus oryzae) larvae; experiment: Fumigation test in glass vessel, rice weevil larvae in grain seeds; type: in vivo; details: SITTOR larvae in grain seeds; Example 5; ACF 50.6/48.2/51.4 g/m^3, SF 47.4/44.6/41 g/m^3 (1st/2nd/3rd fumigation); 23/23/22° C.
# From the text: as §7, §2, §3, §4, §5
# [12] = test system: House longhorn beetle (Hylotrupes bajulus) larvae; experiment: Fumigation test in glass vessel, house longhorn beetle larvae in wood blocks; type: in vivo; details: HYLOBA larvae in wood blocks; Example 5; ACF 50.6/48.2/51.4 g/m^3, SF 47.4/44.6/41 g/m^3 (1st/2nd/3rd fumigation); 23/23/22° C.
# From the text: as §8, §2, §3, §4, §5
# [13] = CRYPBR termites, ACF 50.0/53.8 g/m^3, SF 47.8/44.8 g/m^3 (1st/2nd fumigation), 23.7/24° C.
# [14] = INCITA termites, ACF 50.0/53.8 g/m^3, SF 47.8/44.8 g/m^3 (1st/2nd fumigation), 23.7/24° C.
structure (smiles),measurement,setting,value
"O=S(=O)(F)F [SF, sulfuryl fluoride, reference compound]",Liveliness of termites after 1 hour of fumigation,termites,more lively overall
same,Speed of action compared with acetyl fluoride,wood and storage pests,clearly acts more slowly than acetyl fluoride
same,"Number alive, 30 min. after Start of Fumigation",[1],0
same,"Number dead, 30 min. after Start of Fumigation",[1],10
same,"Number alive, 30 min. after Start of Fumigation",[2],0
same,"Number dead, 30 min. after Start of Fumigation",[2],15
same,"Number alive, 30 min. after Start of Fumigation",[3],4
same,"Number alive, 1 hr. after Start of Fumigation",[3],2
same,"Number alive, 3 hrs. after Start of Fumigation",[3],0
same,"Number dead, 30 min. after Start of Fumigation",[3],0
same,"Number dead, 1 hr. after Start of Fumigation",[3],2
same,"Number dead, 3 hrs. after Start of Fumigation",[3],4
same,"Number alive, 30 min. after Start of Fumigation",[4],0
same,"Number dead, 30 min. after Start of Fumigation",[4],15
same,"Number alive, 30 min. after Start of Fumigation",[5],15
same,"Number alive, 1 hr. after Start of Fumigation",[5],0
same,"Number dead, 30 min. after Start of Fumigation",[5],0
same,"Number dead, 1 hr. after Start of Fumigation",[5],15
same,"Number alive, 30 min. after Start of Fumigation",[6],1
same,"Number alive, 1 hr. after Start of Fumigation",[6],1
same,"Number alive, 3 hrs. after Start of Fumigation",[6],0
same,"Number dead, 30 min. after Start of Fumigation",[6],4
same,"Number dead, 1 hr. after Start of Fumigation",[6],4
same,"Number dead, 3 hrs. after Start of Fumigation",[6],5
same,"Number alive, 30 min. after Start of Fumigation",[7],0
same,"Number dead, 30 min. after Start of Fumigation",[7],6
same,"Number alive, 1 hr. after Start of Fumigation",[8],3
same,"Number alive, 3 hrs. after Start of Fumigation",[8],4
same,"Number alive, 6 hrs after Start of Fumigation",[8],0
same,"Number dead, 1 hr. after Start of Fumigation",[8],0
same,"Number dead, 3 hrs. after Start of Fumigation",[8],0
same,"Number dead, 6 hrs after Start of Fumigation",[8],8
same,"Number alive, 30 min. after 1st Fumigation",[9]; [13],180
same,"Number alive, 1 hr. after 1st Fumigation",[9]; [13],60
same,"Number alive, 3 hrs. after 1st Fumigation",[9]; [13],0
same,"Number dead, 30 min. after 1st Fumigation",[9]; [13],0
same,"Number dead, 1 hr. after 1st Fumigation",[9]; [13],0
same,"Number dead, 3 hrs. after 1st Fumigation",[9]; [13],120
same,Number of Cryptotermes still alive on reexamination after 24-hour observation period,"[9]; out of 60 animals fumigated 1 hour, then 24-hour observation",7
same,"Number alive, 30 min. after Start of Fumigation",[10],0
same,"Number dead, 30 min. after Start of Fumigation",[10],15
same,Condition of Incisitermes on reexamination after 24-hour observation period,"Incisitermes tabogae; animals fumigated 1 hour, then 24-hour observation",dead
same,"Number alive, 30 min. after 1st Fumigation",Incisitermes tabogae; [14],90
same,"Number alive, 1 hr. after 1st Fumigation",Incisitermes tabogae; [14],30
same,"Number alive, 3 hrs. after 1st Fumigation",Incisitermes tabogae; [14],0
same,"Number dead, 30 min. after 1st Fumigation",Incisitermes tabogae; [14],0
same,"Number dead, 1 hr. after 1st Fumigation",Incisitermes tabogae; [14],0
same,"Number dead, 3 hrs. after 1st Fumigation",Incisitermes tabogae; [14],60
same,"Number alive, 1 hr. after Start of Fumigation",[11],0
same,"Number dead, 1 hr. after Start of Fumigation",[11],15
same,"Number alive, 1 hr. after Start of Fumigation",[12],3
same,"Number alive, 3 hrs. after Start of Fumigation",[12],0
same,"Number alive, 6 hrs after Start of Fumigation",[12],0
same,"Number dead, 1 hr. after Start of Fumigation",[12],1
same,"Number dead, 3 hrs. after Start of Fumigation",[12],4
same,"Number dead, 6 hrs after Start of Fumigation",[12],6
